The text below walks through data of publication PMC11243598, “Inhibition of Monoamine Oxidases by Pyridazinobenzylpiperidine Derivatives” (Molecules, 2024).

SMILES strings stand for the structures.

The target of one series is T1, MAO-B (Homo sapiens, UniProt P27338).
T1 sequence (P27338 1-520): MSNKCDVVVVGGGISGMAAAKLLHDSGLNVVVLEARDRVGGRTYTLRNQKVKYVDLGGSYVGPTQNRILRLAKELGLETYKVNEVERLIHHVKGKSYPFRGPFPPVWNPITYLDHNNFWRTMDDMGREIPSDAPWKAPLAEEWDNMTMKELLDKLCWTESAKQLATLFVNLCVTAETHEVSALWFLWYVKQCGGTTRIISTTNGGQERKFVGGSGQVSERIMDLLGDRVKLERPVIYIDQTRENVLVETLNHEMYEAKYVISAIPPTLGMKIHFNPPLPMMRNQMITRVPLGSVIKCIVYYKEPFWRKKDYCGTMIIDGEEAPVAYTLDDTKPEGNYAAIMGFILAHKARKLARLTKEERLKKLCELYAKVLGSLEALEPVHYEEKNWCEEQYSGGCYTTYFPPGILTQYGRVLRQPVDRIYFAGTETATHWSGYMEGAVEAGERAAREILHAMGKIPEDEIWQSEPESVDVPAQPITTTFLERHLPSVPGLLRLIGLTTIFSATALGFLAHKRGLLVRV
The series is described as follows: biochemical. To be noted: for remaining activity at 10 µM: read-out: Residual Activity at 10 µM (%) MAO-B.

A further series concerns the target T2, hMAO-A (Homo sapiens, UniProt P21397).
T2 sequence (P21397 1-527): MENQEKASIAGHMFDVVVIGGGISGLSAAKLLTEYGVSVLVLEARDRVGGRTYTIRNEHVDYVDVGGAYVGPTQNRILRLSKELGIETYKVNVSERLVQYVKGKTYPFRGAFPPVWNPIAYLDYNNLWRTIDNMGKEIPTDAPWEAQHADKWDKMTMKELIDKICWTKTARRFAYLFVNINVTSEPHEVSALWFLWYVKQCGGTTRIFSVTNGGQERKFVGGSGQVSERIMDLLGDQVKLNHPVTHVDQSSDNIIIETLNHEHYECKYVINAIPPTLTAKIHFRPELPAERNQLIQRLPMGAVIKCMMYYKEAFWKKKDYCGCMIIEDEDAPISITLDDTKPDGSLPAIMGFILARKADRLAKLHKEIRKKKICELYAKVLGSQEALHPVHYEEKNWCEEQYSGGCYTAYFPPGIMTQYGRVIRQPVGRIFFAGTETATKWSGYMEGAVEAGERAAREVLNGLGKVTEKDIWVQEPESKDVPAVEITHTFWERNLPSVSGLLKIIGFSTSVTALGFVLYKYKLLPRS
The series is described as follows: Inhibition of recombinant hMAO-A, kynuramine substrate, continuous absorbance method. The following applies: for remaining activity at 10 µM: read-out: Residual Activity at 10 µM (%) MAO-A.

The nature of series [1]: PAMPA for blood-brain barrier permeation. In kind it is in vitro ADME. To be noted: class from Pe.

`O=C(Cn1nc(N2CCC(Cc3ccccc3)CC2)ccc1=O)NN=Cc1ccccc1` [Compound S1]: on MAO-B, half-maximal inhibition (IC50) was put at 7.05 ± 0.086 µM and the remaining activity at 10 µM came out at 36.5 ± 8.32%. Further, at hMAO-A, the IC50 is 16.47 ± 0.047 µM and the remaining activity at 10 µM is 63.4 ± 2.24%.
The like results for `O=C(Cn1nc(N2CCC(Cc3ccccc3)CC2)ccc1=O)NN=Cc1ccc(Br)cc1` [Compound S2] were, in that order, 10.7 ± 0.565 µM, 56.5 ± 4.99%, 10.9 ± 1.19 µM and 54.8 ± 3.1%.
In the case of `O=C(Cn1nc(N2CCC(Cc3ccccc3)CC2)ccc1=O)NN=Cc1ccccc1Br` [Compound S3, N′-2-bromobenzylidene-2-(3-(4-benzylpiperidin-1-yl)-6-oxopyridazin-1(6H)-yl)acetohydrazide], on MAO-B, the midpoint of inhibition, the IC50, lay at 4.75 ± 0.155 µM and the remaining activity at 10 µM came to 50.59 ± 0.01%. Also, at hMAO-A, the half-maximal inhibitory concentration (IC50) was 4.13 ± 1.12 µM and the remaining activity at 10 µM is 34.4 ± 1.93%.
For the molecule `O=C(Cn1nc(N2CCC(Cc3ccccc3)CC2)ccc1=O)NN=Cc1cccc(Br)c1` [Compound S4, N′-3-bromobenzylidene-2-(3-(4-benzylpiperidin-1-yl)-6-oxopyridazin-1(6H)-yl)acetohydrazide], on MAO-B, the IC50 stood at 6.17 ± 0.155 µM and the remaining activity at 10 µM amounted to 33.5 ± 2.5%. Also, at hMAO-A, the 50% inhibitory concentration (IC50) stood at 27 ± 0.797 µM and the remaining activity at 10 µM was found to be 56.9 ± 9.78%.
In the case of `O=C(Cn1nc(N2CCC(Cc3ccccc3)CC2)ccc1=O)NN=Cc1ccc(Cl)cc1` [Compound S6], at MAO-B, inhibition was half-maximal at 4.95 ± 0.353 µM (IC50) and the remaining activity at 10 µM came out at 26.7 ± 3.83%. Further, at hMAO-A, the IC50 worked out at 7.14 ± 1.07 µM and the remaining activity at 10 µM stood at 42.2 ± 3.22%.
In the case of `O=C(Cn1nc(N2CCC(Cc3ccccc3)CC2)ccc1=O)NN=Cc1cccc(F)c1` [Compound S7, N′-3-fluorobenzylidene-2-(3-(4-benzylpiperidin-1-yl)-6-oxopyridazin-1(6H)-yl)acetohydrazide], the half-inhibitory concentration (IC50) was found to be 1.711 ± 0.009 µM against MAO-B and 4.74 ± 0.624 µM at hMAO-A. Besides, the remaining activity at 10 µM stood at 1.03 ± 4.63% at MAO-B and 12.8 ± 7.24% at hMAO-A.
`O=C(Cn1nc(N2CCC(Cc3ccccc3)CC2)ccc1=O)NN=Cc1ccc(F)cc1` [Compound S8]: at MAO-B, half-maximal inhibition (IC50) was put at 5.37 ± 0.123 µM and the remaining activity at 10 µM was 31.9 ± 2.62%. Moreover, at hMAO-A, the IC50 was 7.99 ± 1.28 µM and the remaining activity at 10 µM came out at 22.4 ± 3.07%.
As for `Cc1ccccc1C=NNC(=O)Cn1nc(N2CCC(Cc3ccccc3)CC2)ccc1=O` [Compound S9, N′-2-methylbenzylidene-2-(3-(4-benzylpiperidin-1-yl)-6-oxopyridazin-1(6H)-yl)acetohydrazide], on MAO-B, the midpoint of inhibition, the IC50, lay at 7.24 ± 0.994 µM and the remaining activity at 10 µM came out at 32.9 ± 5.19%. Further, at hMAO-A, the concentration for half-maximal inhibition (IC50) is 4.51 ± 0.589 µM and the remaining activity at 10 µM was 23.2 ± 1.2%.
In the case of `Cc1cccc(C=NNC(=O)Cn2nc(N3CCC(Cc4ccccc4)CC3)ccc2=O)c1` [Compound S10, N′-3-methylbenzylidene-2-(3-(4-benzylpiperidin-1-yl)-6-oxopyridazin-1(6H)-yl)acetohydrazide], on MAO-B, the IC50 is 3.549 ± 0.001 µM and the remaining activity at 10 µM was found to be 9.31 ± 2.04%. On hMAO-A, the 50% inhibitory concentration (IC50) amounted to 4.53 ± 0.424 µM and the remaining activity at 10 µM was found to be 16.1 ± 4.26%.
In the same order, the values of `COc1cccc(C=NNC(=O)Cn2nc(N3CCC(Cc4ccccc4)CC3)ccc2=O)c1` [Compound S11] are 1.71 ± 0.437 µM, 14.5 ± 1.14%, 5.064 ± 0.006 µM and 16.6 ± 9.23%.
In the case of `COc1ccc(C=NNC(=O)Cn2nc(N3CCC(Cc4ccccc4)CC3)ccc2=O)cc1` [Compound S12], at MAO-B, the half-maximal inhibitory concentration (IC50) was 6.463 ± 0.035 µM and the remaining activity at 10 µM amounted to 38.46 ± 0.36%. For the same molecule, on hMAO-A, the concentration for half-maximal inhibition (IC50) amounted to 4.642 ± 0.001 µM and the remaining activity at 10 µM was 7.71 ± 8.25%.
Turning to `CN(C)c1ccc(C=NNC(=O)Cn2nc(N3CCC(Cc4ccccc4)CC3)ccc2=O)cc1` [Compound S13], at MAO-B, the IC50 came out at 6.48 ± 0.559 µM and the remaining activity at 10 µM amounted to 37.6 ± 2.5%. On hMAO-A, the IC50 turned out to be 5.63 ± 1.18 µM and the remaining activity at 10 µM turned out to be 36.1 ± 1.01%.
In the same order, the values of `O=C(Cn1nc(N2CCC(Cc3ccccc3)CC2)ccc1=O)NN=Cc1ccc([N+](=O)[O-])cc1` [Compound S14] are 3.62 ± 0.54 µM, 39.8 ± 4.14%, 24.2 ± 0.283 µM and 67.1 ± 5.19%.
Regarding `CCc1ccc(C=NNC(=O)Cn2nc(N3CCC(Cc4ccccc4)CC3)ccc2=O)cc1` [Compound S15, N′-4-ethylbenzylidene-2-(3-(4-benzylpiperidin-1-yl)-6-oxopyridazin-1(6H)-yl)acetohydrazide], the 50% inhibitory concentration (IC50) against MAO-B worked out at 5.34 ± 0.667 µM; at hMAO-A it was 3.69 ± 0.655 µM. The results for the remaining activity at 10 µM at MAO-B and on hMAO-A were 54.4 ± 4.05% and 30.1 ± 8.1%, respectively.
`N#Cc1cccc(C=NNC(=O)Cn2nc(N3CCC(Cc4ccccc4)CC3)ccc2=O)c1` [Compound S17, N′-3-cyanobenzylidene-2-(3-(4-benzylpiperidin-1-yl)-6-oxopyridazin-1(6H)-yl)acetohydrazide]: the concentration for half-maximal inhibition (IC50) on MAO-B was 3.1 ± 0.088 µM; at hMAO-A it was 6.28 ± 0.306 µM. The remaining activity at 10 µM on MAO-B amounted to 0%; on hMAO-A, 9.98 ± 0.57%.
Turning to `N#Cc1ccc(C=NNC(=O)Cn2nc(N3CCC(Cc4ccccc4)CC3)ccc2=O)cc1` [Compound S18, N′-4-cyanobenzylidene-2-(3-(4-benzylpiperidin-1-yl)-6-oxopyridazin-1(6H)-yl)acetohydrazide], at MAO-B, the IC50 was 3.51 ± 0.811 µM and the remaining activity at 10 µM turned out to be 48.37 ± 0.08%. On hMAO-A, the IC50 stood at 7.19 ± 0.201 µM and the remaining activity at 10 µM amounted to 35.9 ± 2.54%.
In the case of `COc1ccccc1C=NNC(=O)Cn1nc(N2CCC(Cc3ccccc3)CC2)ccc1=O` [Compound S19, N′-2-methoxybenzylidene-2-(3-(4-benzylpiperidin-1-yl)-6-oxopyridazin-1(6H)-yl)acetohydrazide], the remaining activity at 10 µM on MAO-B was found to be 20.8 ± 1.76%. Further, at hMAO-A, the IC50 came to 4.66 ± 0.307 µM and the remaining activity at 10 µM was determined as 7.83 ± 2.05%.
For `COc1cc(C=NNC(=O)Cn2nc(N3CCC(Cc4ccccc4)CC3)ccc2=O)cc(OC)c1` [Compound S20, N′-3,5-dimethoxybenzylidene-2-(3-(4-benzylpiperidin-1-yl)-6-oxopyridazin-1(6H)-yl)acetohydrazide], the IC50 was 3.63 ± 0.142 µM on MAO-B and 19 ± 2.71 µM on hMAO-A. The remaining activity at 10 µM on MAO-B stood at 11.7 ± 2.41%; on hMAO-A it was 68 ± 4.21%.
For the molecule `COc1cc(OC)c(C=NNC(=O)Cn2nc(N3CCC(Cc4ccccc4)CC3)ccc2=O)c(OC)c1` [Compound S21, N′-2,4,6-trimethoxybenzylidene-2-(3-(4-benzylpiperidin-1-yl)-6-oxopyridazin-1(6H)-yl)acetohydrazide], on MAO-B, the midpoint of inhibition, the IC50, lay at 6.12 ± 0.662 µM and the remaining activity at 10 µM was 48.5 ± 6.43%. In addition, on hMAO-A, the IC50 was 7.47 ± 0.344 µM and the remaining activity at 10 µM worked out at 32.8 ± 2.18%.
Take `COc1cccc(C=NNC(=O)Cn2nc(N3CCC(Cc4ccccc4)CC3)ccc2=O)c1OC` [Compound S22, N′-2,3-dimethoxybenzylidene-2-(3-(4-benzylpiperidin-1-yl)-6-oxopyridazin-1(6H)-yl)acetohydrazide]: the IC50 is 7.87 ± 0.208 µM against MAO-B and 5.94 ± 0.264 µM on hMAO-A. In addition, the remaining activity at 10 µM is 39 ± 2.83% on MAO-B and -8.5 ± 2.12% on hMAO-A.
With `COc1cc(C=NNC(=O)Cn2nc(N3CCC(Cc4ccccc4)CC3)ccc2=O)cc(OC)c1OC` [Compound S23, N′-3,4,5-trimethoxybenzylidene-2-(3-(4-benzylpiperidin-1-yl)-6-oxopyridazin-1(6H)-yl)acetohydrazide], the figures for the concentration for half-maximal inhibition (IC50) against MAO-B and on hMAO-A were 10.9 ± 0.405 µM and 28.4 ± 2.95 µM, respectively. Besides, the results for the remaining activity at 10 µM on MAO-B and at hMAO-A were 53.1 ± 2.67% and 78.79 ± 0.3%, respectively.
Consider `COc1ccc(C=NNC(=O)Cn2nc(N3CCC(Cc4ccccc4)CC3)ccc2=O)c(OC)c1` [Compound S24, N′-2,4-dimethoxybenzylidene-2-(3-(4-benzylpiperidin-1-yl)-6-oxopyridazin-1(6H)-yl)acetohydrazide], for which, at MAO-B, the half-maximal inhibitory concentration (IC50) stood at 10.7 ± 2.48 µM and the remaining activity at 10 µM is 54.7 ± 3.76%. Also, on hMAO-A, the IC50 stood at 4.13 ± 0.107 µM and the remaining activity at 10 µM was 20.7 ± 1.34%.
Take `C#CCN(C)Cc1ccccc1` [Pargyline, reference compound]: the remaining activity at 10 µM at hMAO-A is 19.9 ± 6.82%.
Consider `C#CCN(C)[C@H](C)Cc1ccccc1` [Selegiline, reference compound], for which the “Prediction (BBB permeation class)” value in series [1] is listed as “CNS+ (Pe (10^−6 cm·s^−1) > 4.00: CNS+ (high permeation))”.

The IC50 is the concentration that inhibits the measured activity by half.
